Experimental data taken from patent publication US20200325543A1, “DIAGNOSTIC METHOD” (TOLREMO THERAPEUTICS AG, priority 2017, published 2020).
Values joined by “and” are separate entries in the source; they are usually repeats but may differ in a detail not shown here. Identical values can stand only once. Counter-ions that a name gives are not always drawn. Like-named read-outs stand apart in the source and are kept apart here.

System: SOX2
Assay: Screen of a library of FDA-approved drugs for SOX2 antibody staining in A375 cells treated with PLX4720 and AZD6244
Details: for cor. loess: normalized and geometry-corrected (loess) signal; for norm: signal after plate normalization
[1] = A375 cells, 5 uM test drug with 1 uM PLX4720 and 0.5 uM AZD6244, 24 h
[2] = A375 cells, 5 uM test drug with 1 uM PLX4720 and 0.5 uM AZD6244, 24 h, raw signal (ratio of FL2 SOX2 antibody and FL3 nuclear staining), screen run in duplicate
[3] = Z-test against negative controls (DMSO), single dose 5 uM

Compound	cor. loess [1]	raw [2]	norm [1]	z [3]	raw	z
CO[C@H]1C[C@@H]2CC[C@@H](C)[C@@](O)(O2)C(=O)C(=O)N2CCCC[C@H]2C(=O)O[C@H]([C@H](C)C[C@@H]2CC[C@@H](O)[C@H](OC)C2)CC(=O)[C@H](C)/C=C(\C)[C@@H](O)[C@@H](OC)C(=O)[C@H](C)C[C@H](C)/C=C/C=C/C=C/1C [SIROLIMUS]	0.3171	0.9808	0.4075	4.314		
CC(C)(C)c1ccc(C(O)CCCN2CCC(C(O)(c3ccccc3)c3ccccc3)CC2)cc1 (stereo not drawn) [TERFENADINE]	0.2601		0.5459	3.539		
CC(=O)Nc1c(I)cc(I)c(C(=O)O)c1I [ACETRIAZOIC ACID]	0.3537	0.9817	0.3797	4.812		
CC(=O)OCC(=O)[C@@]1(O)CC[C@H]2[C@@H]3CCC4=CC(=O)C=C[C@]4(C)[C@H]3[C@@H](O)C[C@@]21C [PREDNISOLONE ACETATE]	0.4697	0.9772	0.4997	3.871		
C[C@H]1C[C@@H]2[C@H]([C@@H](O)C[C@@]3(C)[C@H]2CC[C@]3(O)C(=O)COC(=O)CCC(=O)O)[C@@]2(C)C=CC(=O)C=C12 [METHYLPREDNISOLONE SODIUM SUCCINATE]	0.4008	0.9806	0.4166	5.452		
Cc1cc(C#N)cc(C)c1Oc1nc(Nc2ccc(C#N)cc2)nc(N)c1Br [Etravirine (TMC125), Etravirine]	0.646	0.9731	0.6589	6.907		
CC[C@@H](C(=O)[C@@H](C)[C@@H](O)[C@H](C)[C@@H]1O[C@@H]([C@@H](CC)C(=O)O)CC[C@@H]1C)[C@H]1O[C@]2(C=C[C@@H](O)[C@]3(CC[C@@](C)([C@H]4CC[C@](O)(CC)[C@H](C)O4)O3)O2)[C@H](C)C[C@@H]1C [SALINOMYCIN, SODIUM]	0.802	0.9671	0.8129	8.891		
CC(=O)OCC(=O)[C@@]1(O)CC[C@H]2[C@@H]3CCC4=CC(=O)C=C[C@]4(C)[C@@]3(Cl)[C@@H](Cl)C[C@@]21C [DICHLORISONE ACETATE]	0.4911	0.9771	0.4765	5.445		
MONENSIN SODIUM	0.5359	0.9761	0.5968	4.599		
Oc1cc(Cl)ccc1Oc1ccc(Cl)cc1Cl [TRICLOSAN]	0.531	0.9753	0.5438	3.141		
CC(=O)OCC(=O)[C@@]1(O)CC[C@H]2[C@@H]3CCC4=CC(=O)CC[C@]4(C)[C@@]3(F)[C@@H](O)C[C@@]21C [FLUDROCORTISONE ACETATE]	0.4578	0.977	0.5063	3.773		
C[C@H]1O[C@@H](O[C@H]2[C@@H](O)C[C@H](O[C@H]3[C@@H](O)C[C@H](O[C@H]4CC[C@@]5(C)[C@H](CC[C@@H]6[C@@H]5C[C@@H](O)[C@]5(C)[C@@H](C7=CC(=O)OC7)CC[C@]65O)C4)O[C@@H]3C)O[C@@H]2C)C[C@H](O)[C@@H]1O [DIGOXIN]	1.623	0.9433	1.668	13.38		
CCS(=O)(=O)N1CCN(c2ccc(Nc3ncc(C(N)=O)c(NC4CC4)n3)cc2)CC1 [Cerdulatinib (PRT062070, PRT2070), Cerdulatinib]	0.4672	0.9741	0.6248	3.646		
O=c1[nH]c(=O)n([C@H]2C[C@H](O)[C@@H](CO)O2)cc1F [FLOXURIDINE]	0.3344	0.9795	0.4513	4.549		
O=C(Oc1cccc2cccnc12)c1ccccc1 [BENZOXIQUINE]	0.5846	0.9731	0.6197	3.458		
CC(=O)OCC(=O)[C@@]12OC3(CCCC3)O[C@@H]1C[C@H]1[C@@H]3CCC4=CC(=O)C=C[C@]4(C)[C@@]3(F)[C@@H](O)C[C@@]12C [AMCINONIDE]	0.491	0.9761	0.5647	6.68		
C[CH2][Hg][S]c1ccccc1C(=O)[O-].[Na+] [THIMEROSAL]					0.9726 and 0.8663	
CCC(=O)OCC(=O)[C@@]1(OC(=O)CC)[C@@H](C)C[C@H]2[C@@H]3CCC4=CC(=O)C=C[C@]4(C)[C@@]3(F)[C@@H](O)C[C@@]21C [BETAMETHASONE 17,21-DIPROPIONATE]	0.4356	0.9801	0.4336	5.927		
COC(=O)Nc1nc2ccc(C(=O)c3cccs3)cc2[nH]1 [NOCODAZOLE]	0.5311	0.9766	0.5009	3.142		
Nc1ncn([C@@H]2O[C@H](CO)[C@@H](O)[C@H]2O)c(=O)n1 [AZACITIDINE]	0.9945	0.9651	0.9714	8.534		

Compound	cor. loess [1]	raw [2]	norm [1]	z [3]	raw	z
IVERMECTIN	0.6358	0.9726	0.6393	3.761		
CCCSc1ccc2nc(NC(=O)OC)[nH]c2c1 [ALBENDAZOLE]	0.3977		0.3992	5.411	0.9811	
O=c1[nH]c(=O)n([C@H]2C[C@H](O)[C@@H](CO)O2)cc1C(F)(F)F [TRIFLURIDINE]	0.4387	0.9796	0.4485	5.969		
CCC(=O)O[C@]1(C(=O)CCl)[C@@H](C)C[C@H]2[C@@H]3CCC4=CC(=O)C=C[C@]4(C)[C@@]3(F)[C@@H](O)C[C@@]21C [CLOBETASOL PROPIONATE]	0.4021	0.9794	0.4554	5.471		
CN(C)c1ccc2nc3ccc(=[N+](C)C)cc-3sc2c1 [METHYLENE BLUE]	0.5193	0.9751	0.5531	3.072		
CCOC(=O)COc1ccc2c(=O)cc(-c3ccccc3)oc2c1 [EFLOXATE]	1.468	0.955	1.397	5.713		
CC[C@H]1CN2CCc3cc(OC)c(OC)cc3[C@@H]2C[C@@H]1C[C@H]1NCCc2cc(OC)c(OC)cc21 [EMETINE DIHYDROCHLORIDE]	1.429	0.9485	1.489			11.78
CCN1CCN(Cc2ccc(Nc3ncc(F)c(-c4cc(F)c5nc(C)n(C(C)C)c5c4)n3)nc2)CC1 [LY2835219]	1.234	0.963	1.024	4.755		
Cc1ccc(-c2nc3ccc(C)cn3c2CC(=O)N(C)C)cc1 [ZOLPIDEM]	0.2522	0.9798	0.4412	3.432		
CCCCC(CC)CN1CN(CC(CC)CCCC)CC(C)(N)C1 (stereo not drawn) [HEXETIDINE]	0.3155	0.9834	0.2651	3.497		
O=C(CCCCCCNC(=O)c1cnc(N(c2ccccc2)c2ccccc2)nc1)NO [Rocihnostat (ACY-1215), Rocihnostat]	0.6577	0.9705	0.7378	5.132		
Nc1ccc2cc3ccc(N)cc3nc2c1 [PROFLAVINE HEMISULFATE]	0.3381	0.9828	0.2862	3.749		
C[C@H]1[C@@H](O)O[C@@H]2O[C@@]3(C)CC[C@H]4[C@H](C)CC[C@@H]1[C@@]24OO3 [ARTENIMOL]	0.4829	0.978	0.4488	5.354		
C[C@]12CCC(=O)C(O)=C1CC[C@@H]1[C@@H]2CC[C@]2(C)C(=O)CC[C@@H]12 [FORMESTANE]	0.4179	0.98	0.3818	4.633		
COc1cc2c(c(OC)c1OC)-c1ccc(OC)c(=O)cc1[C@@H](NC(C)=O)CC2 [COLCHICINE]	0.7111	0.9693	0.7731	5.86		
O=C(CCCCCCC(=O)Nc1ccccc1)NO [VORINOSTAT]	0.9868	0.9634	0.984	13.43		
CC(=O)OCC(=O)[C@@]1(O)[C@H](C)C[C@H]2[C@@H]3CCC4=CC(=O)C=C[C@]4(C)[C@@]3(F)[C@@H](O)C[C@@]21C [DEXAMETHASONE ACETATE]	0.4615	0.9769	0.5088	3.803		
CCOc1cc2ncc(C#N)c(Nc3ccc(OCc4ccccn4)c(Cl)c3)c2cc1NC(=O)/C=C/CN(C)C [Neratinib (HKI-272), Neratinib]	4.182	0.9044	4.156	16.11		
CN(C)c1ccc(C(=C2C=CC(=[N+](C)C)C=C2)c2ccc(N(C)C)cc2)cc1 [GENTIAN VIOLET]	1.077	0.9601	1.09	8.875		
S=C(NCc1ccc2c(c1)OCO2)N1CCN(c2ncnc3c2oc2ccccc23)CC1 [Amuvatinib (MP-470), Amuvatinib]	0.5191	0.9748	0.6031	4.05		
